The values that follow are results of earlier work, collected in PMC10671431, “New Derivatives of N-Hydroxybutanamide: Preparation, MMP Inhibition, Cytotoxicity, and Antitumor Activity” (International Journal of Molecular Sciences, 2023).

Read-outs that look alike come from different tables or passages of the source. Bounds are passed on as bounds.

The target of one series is gelatinase A (MMP-2). Also on record: method as in earlier work. The settings on record: read-out: IC50 for gelatinase A (MMP-2) inhibition; cited from earlier work.
For a further series, the system named is MMP-8. Also on record: method as in PMID 23541335, PMID 16538215. The settings on record: cited from earlier work.
The subject of a further series is MMP-1. Further details: method as in PMID 23541335, PMID 16538215. The settings on record: cited from earlier work.
The test system of another series is MMP-13. Further details: method as in PMID 23541335, PMID 16538215. The settings on record: cited from earlier work.
For series [1], the system named is pancreatic adenocarcinoma cells AsPC1. Further details: method as in PMID 10767785. The settings on record: 72 h of exposure, cited from earlier work.
Series [2] has as its system pancreatic adenocarcinoma cells Capan1. Further details: method as in PMID 10767785. The settings on record: 72 h of exposure, cited from earlier work.
Series [3] has as its system pancreatic adenocarcinoma HPAC cells. Also on record: method as in PMID 9224409. The settings on record: 4000 ng/mL (8.37 μM), 24 h of exposure; cited from earlier work.
Series [4] concerns Shionogi hormone-responsive breast carcinoma cells. Further details: method as in PMID 8347186. The settings on record: 156 μg/mL (326.61 μM), 96 h of exposure; cited from earlier work.
Another series has as its system human glioma U-251 cells. Further details: method as in PMID 10048980. The settings on record: 10 μM, 96 h of exposure; cited from earlier work.
For another series, the system named is B16-BL6 melanoma. Further details: method as in PMID 8050828. The settings on record: mice with B16-BL6 melanoma; cited from earlier work.
Series [5] has as its system pancreatic carcinoma cells CD18. Further details: method as in PMID 24022491. The settings on record: 5 μM, 24 h of exposure; cited from earlier work.
The subject of series [6] is rat prostate cells derived from R3327-MatLyLu Dunning tumor. Also on record: method as in PMID 10754522. The settings on record: 4000 ng/mL (8.37 μM), 48 h of exposure; cited from earlier work.
Series [7] has as its system pancreatic carcinoma cells MiaPaCa2. Also on record: method as in PMID 24022491. The settings on record: 5 μM, 24 h of exposure; cited from earlier work.
Series [8] relates to hormone-sensitive prostate cancer G subline of Dunning tumor. Also on record: method as in PMID 16096433. The settings on record: rats; cited from earlier work.
The test system of series [9] is hamster peritoneal macrophages. The settings on record: 72 h of exposure; cited from earlier work.
Series [10] deals with human histiocytic lymphoma cells U-937. Also on record: method as in doi:10.17265/1934-7375/2015.06.002. The settings on record: 72 h of exposure, cited from earlier work.
Series [11] deals with human breast carcinoma cells MDA-MB-435. Further details: method as in PMID 31637006. The settings on record: concentrations up to 50 μg/mL (150.87 μM), 48 h of exposure; cited from earlier work.
For series [12], the system named is human hepatocellular carcinoma cells HepG2. Further details: method as in doi:10.17265/1934-7375/2015.06.002. The settings on record: 72 h of exposure, cited from earlier work.
Series [13] deals with mouse breast carcinoma cells 4T1. Further details: method as in PMID 31637006. The settings on record: concentrations up to 50 μg/mL (150.87 μM), 48 h of exposure; cited from earlier work.
Series [14] has as its system WM266-4 melanoma cells in nude mice. Also on record: method as in PMID 27687955. The settings on record: cited from earlier work.
For series [15], the system named is co-cultured neonatal rat ventricular fibroblasts and myocytes. Also on record: method as in PMID 19365278. The settings on record: 24 h of exposure; cited from earlier work.
In series [16] the test system is human malignant glioma cells U-87. Also on record: method as in PMID 10213221. The settings on record: cited from earlier work.
Series [17] has as its system human MV522 lung cancer cells in nude mice. Further details: method as in PMID 10430098. The settings on record: cited from earlier work.
The next series relates to Lewis lung carcinoma. Also on record: method as in PMID 9247252. The settings on record: cited from earlier work.
The mark [18] stands for this setting: concentrations up to 10,000 ng/mL (20.94 μM).
[19] abbreviates: higher concentrations (up to 100,000 ng/mL or 209.36 μM).

As to `C=C[C@H]1C[C@@H](C)C[C@@H](C)[C@@H]1c1c(O)ccn(O)c1=O` [pyridoxatin], the IC50 at gelatinase A (MMP-2) was 15.2 µM.
Consider `O=C(C[C@H](CSc1ccccc1)C(=O)O)c1ccc(-c2ccc(Cl)cc2)cc1` [tanomastat], for which the “inhibition of MMP-8” value in the series with MMP-8 is reported as “does not inhibit”. For the same compound, the “inhibition of MMP-1” value in the series on MMP-1 is listed as “does not inhibit”. Besides, the “inhibition of MMP-13” value in the series with MMP-13 is “does not inhibit”.
`CNC(=O)[C@H](Cc1ccccc1)NC(=O)[C@H](CC(C)C)[C@H](CSc1cccs1)C(=O)NO` [Batimastat]: the toxicity to cells entry is reported as “no toxicity” in [1] (setting [18]); “only mild toxicity” in [1] (setting [19]); “no toxicity” in series [2] (setting [18]); “only mild toxicity” in series [2] (setting [19]); “toxic” in series [5]; “toxic” in series [7]. The “inhibition of cell growth” value in series [3] and in series [6] was “inhibit the growth” each time. Further, the “effect on cell density” value in [4] is “no apparent effect”. The “reduction in cell viability” value with human glioma U-251 cells is given as 20–40%. The tumor growth result in the series on B16-BL6 melanoma was “inhibit tumor growth”.
As to `O=C1NC(=O)C(c2ccc(-c3ccccc3)cc2)(N2CCN(c3ccc([N+](=O)[O-])cc3)CC2)C(=O)N1` [RO 28-2653], the tumor growth entry in series [8] is given as “inhibit the growth”.
Consider `CNC(=O)[C@@H](NC(=O)[C@H](CC(C)C)[C@H](O)C(=O)NO)C(C)(C)C` [Marimastat], for which the “cytotoxicity IC50” value in series [9] was “higher than 200 μg/mL”; in [10], 10.8 µg/mL; in series [12], “higher than 200 μg/mL”. For the same compound, the IC50 in [10] (read-out: cytotoxicity IC50) was 32.6 µM; in series [12] (read-out: cytotoxicity IC50), more than 603 µM. The effect on cells entry in series [11] and in series [13] was “no effect” in each case. Besides, the “reduction in cell viability” value in the series on human glioma U-251 cells is listed as 20–40%.
Turning to `Nc1ccc(Oc2ccc(S(=O)(=O)CC3CS3)cc2)cc1` (centres unmarked) [ND-322], in series [14], the tumor growth entry is “inhibited the growth”.
With `CC(C)[C@H](NS(=O)(=O)c1ccc(-c2ccc(Br)cc2)cc1)C(=O)O` [PD166793], the “concentrations toxic to cells” value in series [15] is on record as “above 100 μM”.
For the compound `CC1(C)SCCN(S(=O)(=O)c2ccc(Oc3ccncc3)cc2)[C@H]1C(=O)NO` [Prinomastat], the “concentrations toxic to cells” value in series [16] is reported as “above 100 μM”. The tumor growth entry (in series [17]; in the series on Lewis lung carcinoma) was “inhibit the growth” in each case.
